Values of other authors as cited in patent US20120302534A1, “DERIVATIVES OF BETULIN” (priority 2010, published 2012).

System: HIV

C=C(C)[C@@H]1CC[C@]2(C(=O)O)CC[C@]3(C)[C@H](CC[C@@H]4[C@@]5(C)CC[C@H](OC(=O)CC(C)(C)C(=O)O)C(C)(C)[C@@H]5CC[C@]43C)[C@@H]12 [Bevirimat]
reduced HIV viral load by a mean of (patients who achieved trough levels of >=20 μg/mL and without key baseline Gag polymorphisms at Q369, V370 or T371): 1.3 log10/mL
viral load reduction versus patients without Gag polymorphisms (users with Gag polymorphisms at Q369, V370 or T371): significantly lower load reductions
